Series [1] has as its system HeLa. The experiment in a line: Cytotoxicity against human HeLa cells incubated for 24 hrs in presence of NAC CCK-8 assay. In kind it is functional, cell-based.
The test system of series [2] is CT26. The experiment in a line: Antitumor activity against mouse CT26 cells implanted in […] BALB/c mouse assessed as increase in CD8 T lymphocytes at 15 to 60 mg/kg, ig administered daily for 28 days and measured every 4 days. In kind it is functional, organism-based. The note with it: dose 15-60 mg/kg, time 28.0 day.
The target of series [3] is T1, Thioredoxin reductase 1, cytoplasmic (Mus musculus, UniProt Q9JMH6).
T1 sequence (Q9JMH6 whole entry): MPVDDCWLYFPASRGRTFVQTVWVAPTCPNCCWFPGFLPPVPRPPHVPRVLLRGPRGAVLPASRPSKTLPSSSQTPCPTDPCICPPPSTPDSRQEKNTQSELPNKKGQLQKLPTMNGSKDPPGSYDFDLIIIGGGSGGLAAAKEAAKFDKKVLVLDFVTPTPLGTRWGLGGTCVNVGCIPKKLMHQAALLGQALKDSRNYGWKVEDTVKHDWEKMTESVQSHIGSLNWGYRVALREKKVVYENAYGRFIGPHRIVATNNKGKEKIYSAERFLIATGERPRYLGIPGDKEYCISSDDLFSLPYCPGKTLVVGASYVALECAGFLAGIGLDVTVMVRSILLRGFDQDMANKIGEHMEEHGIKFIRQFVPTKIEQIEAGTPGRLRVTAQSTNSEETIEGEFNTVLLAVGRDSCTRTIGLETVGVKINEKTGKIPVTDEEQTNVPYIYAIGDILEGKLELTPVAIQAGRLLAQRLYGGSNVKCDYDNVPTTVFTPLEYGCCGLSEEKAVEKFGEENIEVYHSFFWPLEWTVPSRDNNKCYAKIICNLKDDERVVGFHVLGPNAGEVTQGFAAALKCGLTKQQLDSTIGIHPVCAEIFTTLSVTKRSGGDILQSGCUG
Kind of series: Inhibition of TrxR1 in mouse CT26 cells incubated for 24 hrs. In kind it is cell-based.

For series [4], the system named is HeLa. Kind of series: Cytotoxicity against human HeLa cells transfected with IDO1 siRNA incubated for 24 hrs by CCK-8 assay (reference value: 9.74 +/- 1.64 uM). In kind it is functional, cell-based.
Series [5] has as its target Indoleamine 2,3-dioxygenase 1 (Mus musculus) (UniProt P28776). The experiment in a line: In vivo inhibition of IDO1 in BALB/c mouse implanted with mouse CT-26 cells assessed as reduction in tumor Kyn/Trp ratio at 60 mg/kg, po administered once daily by LC-MS/MS analysis. In kind it is functional, organism-based.
For series [6], the system named is HCT-116. Kind of series: Antiproliferative activity against human HCT-116 cells assessed as cell growth inhibition incubated for 48 hrs by CCK-8 assay. In kind it is functional, cell-based. The settings on record: HCT-116, 48 h.
Another series concerns Mus musculus. Kind of series: In vivo inhibition of TrxR1 in human HCT-116 cells xenografted in athymic nude BALB/c mouse assessed as reduction in TrxR1 activity at 15 to 60 mg/kg, ig administered daily for 28 days and measured every 4 days. In kind it is functional, organism-based. The settings on record: dose 15-60 mg/kg, time 28.0 day. (In general: In xenograft studies the graft and the host belong to different species.)

In series [7] the target is T2, Indoleamine 2,3-dioxygenase 2 (Homo sapiens, UniProt Q6ZQW0).
T2 sequence (Q6ZQW0 whole entry): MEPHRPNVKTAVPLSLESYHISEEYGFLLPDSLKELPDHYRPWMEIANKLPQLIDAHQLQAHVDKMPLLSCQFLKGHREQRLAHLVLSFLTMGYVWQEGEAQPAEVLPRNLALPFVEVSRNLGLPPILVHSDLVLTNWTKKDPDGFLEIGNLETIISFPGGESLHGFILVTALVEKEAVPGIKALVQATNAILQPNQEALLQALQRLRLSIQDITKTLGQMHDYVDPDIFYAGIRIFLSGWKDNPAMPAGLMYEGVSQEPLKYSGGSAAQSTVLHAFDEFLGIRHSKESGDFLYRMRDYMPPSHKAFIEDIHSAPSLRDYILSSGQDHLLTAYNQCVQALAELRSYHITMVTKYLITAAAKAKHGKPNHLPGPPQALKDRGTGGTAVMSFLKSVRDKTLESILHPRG
The experiment in a line: Inhibition of IDO2 (unknown origin) using D-Trp as substrate incubated for 1 hr.

Series [8] deals with HeLa. Kind of series: Cytotoxicity against human HeLa cells transfected with TrxR1 siRNA incubated for 24 hrs by CCK-8 assay (reference value: 9.74 +/- 1.64 uM). Format: functional, cell-based.
Another series has as its system IDO1. Kind of series: Selectivity ratio of IC50 for cytotoxicity against human HeLa cells to EC50 for inhibition of IDO1 in human HeLa cells. Format: cell-based. The settings on record: read-out: Ratio IC50/EC50.
The subject of series [9] is CT26. Kind of series: Antitumor activity against mouse CT26 cells implanted in athymic nude BALB/c mouse assessed as reduction in proliferative nTreg lymphocytes at 15 to 60 mg/kg, ig administered daily for 28 days and measured every 4 days by immunofluorescence analysis. The note with it: dose 15-60 mg/kg, time 28.0 day. Format: functional, organism-based.
The target in series [10] is T3, Thioredoxin reductase 1, cytoplasmic (Homo sapiens, UniProt Q16881).
T3 sequence (Q16881 whole entry): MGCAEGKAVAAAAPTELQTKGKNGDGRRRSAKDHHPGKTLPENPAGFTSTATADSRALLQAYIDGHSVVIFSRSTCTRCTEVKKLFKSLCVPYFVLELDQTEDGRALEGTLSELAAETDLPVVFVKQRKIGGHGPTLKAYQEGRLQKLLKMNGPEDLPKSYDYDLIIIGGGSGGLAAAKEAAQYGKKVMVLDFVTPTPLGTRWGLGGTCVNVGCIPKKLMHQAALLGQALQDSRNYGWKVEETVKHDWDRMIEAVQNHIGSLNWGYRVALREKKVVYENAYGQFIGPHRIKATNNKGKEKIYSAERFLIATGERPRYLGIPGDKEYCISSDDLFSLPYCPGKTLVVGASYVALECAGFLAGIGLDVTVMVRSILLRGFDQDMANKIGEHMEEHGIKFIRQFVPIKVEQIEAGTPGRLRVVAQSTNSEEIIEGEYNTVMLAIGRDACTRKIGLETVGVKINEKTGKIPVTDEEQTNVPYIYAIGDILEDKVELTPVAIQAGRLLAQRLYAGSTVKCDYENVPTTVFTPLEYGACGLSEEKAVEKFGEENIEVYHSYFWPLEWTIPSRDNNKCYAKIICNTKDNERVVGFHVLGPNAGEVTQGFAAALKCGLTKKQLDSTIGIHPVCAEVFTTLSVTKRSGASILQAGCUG
The experiment in a line: Inhibition of TrxR1 in human HCT-116 cells incubated for 24 hrs. In kind it is cell-based.

Series [11] relates to CT26. Kind of series: Antitumor activity against mouse CT26 cells implanted in athymic nude BALB/c mouse assessed as increase in CTL proliferation by measuring Ki67 expression at 15 to 60 mg/kg, ig administered daily for 28 days and measured every 4 days by flow cytometry analysis. Format: functional, organism-based. The note with it: dose 15-60 mg/kg, time 28.0 day.
Series [12] relates to HCT-116. Kind of series: Induction of apoptosis in human HCT-116 cells assessed as apoptotic rate at 5 uM pretreated with NAC incubated for 24 hrs by Annexin-V/PI staining based flow cytometry analysis (reference value: 9.8 +/- 1.59%). In kind it is functional.

SMILES strings stand for the structures. Activity calls are given as the source filed them. The calls are words filed in the database; no cut-off is given here.

In general, IC50 refers to the concentration that gives 50% inhibition. As usually defined, the EC50 is the concentration that produces a half-maximal response. A low value points to a more potent agent.

Chain of Indoleamine 2,3-dioxygenase 1 (Mus musculus) (P28776 whole entry, looked up): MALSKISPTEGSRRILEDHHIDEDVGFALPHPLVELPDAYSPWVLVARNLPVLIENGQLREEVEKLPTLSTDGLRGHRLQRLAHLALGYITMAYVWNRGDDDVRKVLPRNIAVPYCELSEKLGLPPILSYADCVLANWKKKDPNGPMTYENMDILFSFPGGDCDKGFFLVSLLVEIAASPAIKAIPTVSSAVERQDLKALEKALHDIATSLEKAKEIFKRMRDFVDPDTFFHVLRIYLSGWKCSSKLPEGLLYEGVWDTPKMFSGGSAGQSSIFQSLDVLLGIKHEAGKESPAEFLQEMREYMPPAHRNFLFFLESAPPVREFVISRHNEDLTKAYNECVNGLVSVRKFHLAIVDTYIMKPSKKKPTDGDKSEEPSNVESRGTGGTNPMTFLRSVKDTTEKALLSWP

With `O=C(Cc1ccc(O)cc1)Nc1nnc(CCCNc2nonc2/C(=N\O)Nc2ccc(F)c(Br)c2)s1`, the IC50 with HeLa [1] stood at 74.2 µM; in the series with HeLa [4] it was 10.1 µM; with HCT-116 [6], 3.44 µM; in [7], 22.2 µM; with HeLa [8], 4.86 µM. For the same compound, the result (with CT26 [2]; in series [5]; with Mus musculus; with CT26 [9]; in the series with CT26 [11]) was Active. In addition, the EC50 in series [3] amounted to 25.7 µM; in series [10], 3.14 µM. The selectivity ratio with IDO1 is 224. In addition, in the series on HCT-116 [12], the Activity is on record as 11.98%.

Values taken from ChEMBL document CHEMBL5385848, “Discovery of novel hydroxyamidine based indoleamine 2,3-dioxygenase 1 (IDO1) and thioredoxin reductase 1 (TrxR1) dual inhibitors” (Eur J Med Chem, 2023).
